Values after ≈ are worked out from the molar mass of the structure shown. Where a SMILES comes first, the peptide text is derived from it. The star is where a group is joined. Fmoc = O=C(OCC1c2ccccc2-c2ccccc21)*
Columns and labels:
[1] = Antiinflammatory activity in human neutrophils assessed as inhibition of FMLP/CB-induced superoxide anion release; type: functional, cell-based; details: Neutrophil
[2] = Antiinflammatory activity in human neutrophils assessed as inhibition of FMLP/CB-induced elastase release at 10 ug/ml; type: functional; details: Neutrophil
[3] = Antiinflammatory activity in human neutrophils assessed as inhibition of FMLP/CB-induced superoxide anion release at 10 ug/ml; type: functional; details: Neutrophil
[4] = Antiaggregatory activity in human platelets assessed as inhibition of collagen-induced platelet aggregation by aggregometry; type: functional, cell-based
[5] = Antiaggregatory activity in human platelets assessed as inhibition of thrombin-induced platelet aggregation by aggregometry; type: functional, cell-based
[6] = Antiinflammatory activity in human neutrophils assessed as inhibition of FMLP/CB-induced elastase release; type: functional, cell-based, Neutrophil; details: for IC50: Homo sapiens, Neutrophil
[7] = Antiinflammatory activity in human Neutrophil assessed as inhibition of superoxide anion release at 10 ug/ml; type: functional, cell-based
[8] = system: HepG2; experiment: Cytotoxicity against human HepG2 cells by MTT assay; type: functional, cell-based
[9] = system: MCF7; experiment: Cytotoxicity against human MCF7 cells by MTT assay; type: functional, cell-based
[10] = system: MDA-MB-231; experiment: Cytotoxicity against human MDA-MB-231 cells by MTT assay; type: functional, cell-based
[11] = Cytotoxicity against human Hep3B cells by MTT assay; type: functional, cell-based, Hep 3B2
[12] = system: A549; experiment: Cytotoxicity against human A549 cells by MTT assay; type: functional, cell-based
[13] = Antiinflammatory activity in human Neutrophil assessed as inhibition of elastase release at 10 ug/ml; type: functional, cell-based
[14] = system: Ca9-22; experiment: Cytotoxicity against human Ca9-22 cells by MTT assay; type: functional, cell-based
[15] = system: Neutrophil; experiment: Ratio of compound IC50 to PMSF IC50 for antiinflammatory activity in human neutrophils assessed as inhibition of FMLP/CB-induced elastase release; type: functional

Row | IC50 [4] [µg/mL] | IC50 [5] [µg/mL] | SMILES | IC50 [8] [µg/mL] | IC50 [10] [µg/mL] | IC50 [11] [µg/mL] | IC50 [12] [µg/mL] | IC50 [14] [µg/mL] | also measured
1 | 34.8 (≈ 80.4 µM) | > 50 | C[C@H]1O[C@H](Oc2cc(O)c3c(=O)c(O)c(-c4ccc(O)cc4)oc3c2)[C@@H](O)[C@@H](O)[C@@H]1O |  |  |  |  |  | 
2 | 22.2 (≈ 76.5 µM) | > 50 | Oc1cc(O)c2c(c1)O[C@H](c1ccc(O)c(O)c1)[C@H](O)C2 [(-)-EPICATECHIN] |  |  |  |  |  | 
3 | 13.6 (≈ 75.4 µM) | > 50 | CC(=O)Oc1ccccc1C(=O)O [ASPIRIN] |  |  |  |  |  | 
4 | 27.6 (≈ 95.3 µM) | > 50 | Oc1cc(O)c2c(c1)O[C@H](c1ccc(O)c(O)c1)[C@@H](O)C2 [CIANIDANOL] |  |  |  |  |  | 
5 | 29.5 (≈ 59 µM) | 20.5 (≈ 41 µM) | COC(=O)[C@H](Cc1ccccc1)NC(=O)[C@@H](NC(=O)OCC1c2ccccc2-c2ccccc21)C(C)C [IXORAPEPTIDE I] (Fmoc-Val-Phe-OMe) | > 20 | > 20 | 3.36 (≈ 6.71 µM) | > 20 | 20 (≈ 40 µM) | IC50 [9]: > 20 µg/mL
6 | 34.5 (≈ 75.6 µM) | > 50 | C[C@H]1[C@H](C)CC[C@]2(C(=O)O)CC[C@]3(C)C(=CC[C@@H]4[C@@]5(C)CC[C@H](O)C(C)(C)[C@@H]5CC[C@]43C)[C@H]12 [URSOLIC ACID] |  |  |  |  |  | IC50 [6]: 0.31 µg/mL (≈ 0.679 µM); IC50 [1]: 0.29 µg/mL (≈ 0.635 µM)

The next lines start with the compound.

Row | SMILES | IC50 [4] [µg/mL] | IC50 [5] [µg/mL] | IC50 [8] [µg/mL] | IC50 [10] [µg/mL] | IC50 [11] [µg/mL] | IC50 [12] [µg/mL] | IC50 [14] [µg/mL] | also measured
7 | CCCCCCCCCCCCCCCCCCCC(=O)OCC(O)CO (centres undefined) |  |  |  |  |  |  |  | IC50 [1]: 2.47 µg/mL (≈ 6.39 µM); inhibition at 10 µg/mL [2]: 41.8%
8 | CC(=O)OC[C@]1(C)CCC[C@]2(C)[C@@H]1CC[C@]13C[C@H](CC[C@H]12)[C@@H](C(=O)O)C3 |  |  |  |  |  |  |  | IC50 [1]: 5.11 µg/mL (≈ 14.1 µM); inhibition at 10 µg/mL [2]: 44.7%
9 | C[C@@]1(CO)CCC[C@]2(C)[C@@H]1CC[C@]13C[C@H](CC[C@H]12)[C@@H](C(=O)O)C3 |  |  |  |  |  |  |  | inhibition at 10 µg/mL [3]: 31.8%; inhibition at 10 µg/mL [2]: 15.6%
10 | Oc1ccc([C@]23Oc4cc(O)cc(O)c4[C@H](c4c(cc(O)c5c4O[C@@H](c4ccc(O)c(O)c4)[C@@H](O)C5)O2)[C@H]3O)cc1 |  |  |  |  |  |  |  | inhibition (INH) [6]: 2.5%
11 | C=C(C)[C@@H]1CC[C@]2(C(=O)O)CC[C@]3(C)[C@H](CC[C@@H]4[C@@]5(C)CCC(=O)C(C)(C)[C@@H]5CC[C@]43C)[C@@H]12 [BETUNOLIC ACID] | 44.7 (≈ 98.3 µM) | > 50 | 4.32 (≈ 9.5 µM) | > 20 | 13.8 (≈ 30.4 µM) | 8.93 (≈ 19.6 µM) | 14.5 (≈ 31.8 µM) | IC50 [7]: 16.8 µg/mL (≈ 36.9 µM); IC50 [9]: 19.3 µg/mL (≈ 42.5 µM); IC50 [13]: 128 µg/mL (≈ 281 µM)
12 | c1ccc2c(c1)[I+]c1ccccc1-2 [DIPHENYLENEIODONIUM] |  |  |  |  |  |  |  | IC50 [1]: 0.35 µg/mL
13 | COc1cccc2c1C(=O)c1c(O)c3c(c(O)c1C2=O)C[C@@](O)(C(=O)CO)C[C@@H]3O[C@H]1C[C@H](N)[C@H](O)[C@H](C)O1 [DOXORUBICIN] |  |  | 0.23 (≈ 0.423 µM) | 1.32 (≈ 2.43 µM) | 0.42 (≈ 0.773 µM) | 0.63 (≈ 1.16 µM) | 14.5 (≈ 26.6 µM) | 
14 | CC[C@H](C)[C@H](NC(=O)C(NC(=O)[C@H](Cc1ccccc1)N(C)C)C(C(C)C)n1ccc2ccccc21)C(=O)O (some centres undefined) [IXORAPEPTIDE II] |  |  |  |  |  |  |  | Ratio IC50 [15]: 73; IC50 [6]: 0.27 µg/mL (≈ 0.505 µM); IC50 [1]: 0.21 µg/mL (≈ 0.393 µM)
15 | C[C@@H]1O[C@@H](Oc2cc(O)c3c(=O)c(O[C@@H]4O[C@@H](C)[C@H](O)[C@@H](O)[C@H]4O)c(-c4ccc(O)cc4)oc3c2)[C@H](O)[C@H](O)[C@H]1O [KAEMPFERITRIN] |  |  |  |  |  |  |  | inhibition at 10 µg/mL [3]: 8.27%; inhibition at 10 µg/mL [2]: 12.5%
16 | O=c1c(O)c(-c2ccc(O)cc2)oc2cc(O)cc(O)c12 [KAEMPFEROL] | 3.55 (≈ 12.4 µM) | > 50 | > 20 | > 20 | 17.7 (≈ 62 µM) | > 20 | > 20 | IC50 [9]: > 20 µg/mL
17 | C=C(C)[C@@H]1CC[C@]2(C)CC[C@]3(C)[C@H](CC[C@@H]4[C@@]5(C)CC[C@H](O)C(C)(C)[C@@H]5CC[C@]43C)[C@@H]12 [LUPEOL] |  |  | 19.8 (≈ 46.4 µM) | > 20 | 18.8 (≈ 44.1 µM) | > 20 | 16.8 (≈ 39.3 µM) | IC50 [9]: > 20 µg/mL
18 | O=c1cc(-c2ccc(O)c(O)c2)oc2cc(O)cc(O)c12 [LUTEOLIN] | 2.56 (≈ 8.94 µM) | > 50 | 7.36 (≈ 25.7 µM) | 9.65 (≈ 33.7 µM) | 8.03 (≈ 28.1 µM) | 10.2 (≈ 35.7 µM) | 8.55 (≈ 29.9 µM) | IC50 [9]: 9.5 µg/mL (≈ 33.2 µM)
19 | CC1(C)CC[C@]2(C(=O)O)CC[C@]3(C)C(=CC[C@@H]4[C@@]5(C)CCC(=O)C(C)(C)[C@@H]5CC[C@]43C)[C@@H]2C1 [OLEANONIC ACID] |  |  | > 20 | > 20 | > 20 | > 20 | 18 (≈ 39.7 µM) | IC50 [9]: > 20 µg/mL
20 | O=S(=O)(F)Cc1ccccc1 [PHENYLMETHYLSULFONYLFLUORIDE] |  |  |  |  |  |  |  | IC50 [6]: 19.9 µg/mL (≈ 114 µM)
21 | COc1cc2ccc(=O)oc2cc1O [SCOPOLETIN] | 41.7 (≈ 217 µM) | > 50 |  |  |  |  |  | 
